From patent US20100152434A1, “Protein Kinase-binding Nucleosides and Associated Methods” (priority 2007, published 2010)
Where two headings read alike, the source gives them in different places.

Tests used:
EKVX [1] = system: EKVX
SF-268 [2] = system: SF-268
788-0 [3] = conditions: 788-0
RXF 393 = conditions: RXF 393
COLO 205 = assay: cells; conditions: Homo sapiens, COLO 205, 48 h
SK-MEL-5 = assay: cells; conditions: Homo sapiens, SK-MEL-5, 48 h
788-0 [4] = assay: cells; conditions: Homo sapiens, 48 h
SF-268 [5] = assay: cells; conditions: Homo sapiens, SF-268, 48 h
CCRF-CEM [6] = assay: cells; conditions: Homo sapiens, 48 h
LOX IMVI [7] = assay: cells; conditions: Homo sapiens, 48 h
OVCAR-3 = assay: cells; conditions: Homo sapiens, OVCAR-3, 48 h
LOX IMVI [8] = system: LOX IMVI
SF-539 = assay: cells; conditions: Homo sapiens, SF-539, 48 h
UO-31 = assay: cells; conditions: Homo sapiens, UO-31, 48 h
HCC-2998 = conditions: HCC-2998
MCF7 = assay: cells; conditions: Homo sapiens, MCF7, 48 h
CCRF-CEM [9] = system: CCRF-CEM
HOP-62 = conditions: HOP-62
EKVX [10] = assay: cells; conditions: Homo sapiens, 48 h
SN12C = assay: cells; conditions: Homo sapiens, 48 h
OVCAR-8 = assay: cells; conditions: Homo sapiens, OVCAR-8, 48 h
[11] = Log10 Concentration −4.0, Molar
[12] = Log10 Concentration −5.0, Molar
[13] = Log10 Concentration −6.0, Molar
[14] = Log10 Concentration −7.0, Molar
[15] = Log10 Concentration −8.0, Molar

CCOC(=O)C[C@@H]1C(O[Si](C)(C)C(C)(C)C)[C@H](n2cnc3c(NC(=O)Nc4ccccc4)ncnc32)O[C@@H]1CNC(=O)NC (stereo partly shown) [Compound 10]
TGI (EKVX [1]; 48 h): >1.00E−4 Molar | Percent Growth (EKVX [1]; [11]): 42% | Percent Growth (EKVX [1]; [12]): 53% | Percent Growth (EKVX [1]; [13]): 91% | Percent Growth (EKVX [1]; [14]): 90% | Percent Growth (EKVX [1]; [15]): 92% | TGI (NCI-H226; 48 h): >1.00E−4 Molar | Percent Growth (NCI-H226; [11]): 55% | Percent Growth (NCI-H226; [12]): 71% | Percent Growth (NCI-H226; [13]): 102% | Percent Growth (NCI-H226; [14]): 105% | Percent Growth (NCI-H226; [15]): 101% | TGI (SF-268 [2]; 48 h): 2.70E−5 Molar | Percent Growth (SF-268 [2]; [11]): −53% | Percent Growth (SF-268 [2]; [12]): 40% | Percent Growth (SF-268 [2]; [13]): 93% | Percent Growth (SF-268 [2]; [14]): 103% | Percent Growth (SF-268 [2]; [15]): 102% | TGI (788-0 [3]; 48 h): 5.21E−8 Molar | Percent Growth (788-0 [3]; [11]): −97% | Percent Growth (788-0 [3]; [12]): −34% | Percent Growth (788-0 [3]; [13]): 86% | Percent Growth (788-0 [3]; [14]): 83% | Percent Growth (788-0 [3]; [15]): 92% | TGI (RXF 393; 48 h): 4.63E−6 Molar | Percent Growth (RXF 393; [11]): −59% | Percent Growth (RXF 393; [12]): −46% | Percent Growth (RXF 393; [13]): 92% | Percent Growth (RXF 393; [14]): 97% | Percent Growth (RXF 393; [15]): 99% | GI50 (COLO 205): 3.84 µM | CC50 (COLO 205; read-out: LC50): > 100 µM | TGI (MALME-3M; 48 h): >1.00E−4 Molar | Percent Growth (MALME-3M; [11]): 17% | Percent Growth (MALME-3M; [12]): 50% | Percent Growth (MALME-3M; [13]): 92% | Percent Growth (MALME-3M; [14]): 95% | Percent Growth (MALME-3M; [15]): 104% | GI50 (SK-MEL-5): 4.34 µM | CC50 (SK-MEL-5; read-out: LC50): > 100 µM | GI50 (788-0 [4]): 2 µM | GI50 (SF-268 [5]): 6.53 µM | CC50 (SF-268 [5]; read-out: LC50): 92.5 µM | TGI (NCI-H23; 48 h): >1.00E−4 Molar | Percent Growth (NCI-H23; [11]): 36% | Percent Growth (NCI-H23; [12]): 65% | Percent Growth (NCI-H23; [13]): 100% | Percent Growth (NCI-H23; [14]): 100% | Percent Growth (NCI-H23; [15]): 101% | GI50 (CCRF-CEM [6]): 6.69 µM | CC50 (CCRF-CEM [6]; read-out: LC50): > 100 µM | TGI (DU-145; 48 h): 1.94E−5 Molar | Percent Growth (DU-145; [11]): −59% | Percent Growth (DU-145; [12]): 24% | Percent Growth (DU-145; [13]): 110% | Percent Growth (DU-145; [14]): 123% | Percent Growth (DU-145; [15]): 110% | GI50 (LOX IMVI [7]): 5.46 µM | CC50 (LOX IMVI [7]; read-out: LC50): > 100 µM | GI50 (OVCAR-3): 4.59 µM | CC50 (OVCAR-3; read-out: LC50): 91.3 µM | TGI (LOX IMVI [8]; 48 h): >1.00E−4 Molar | Percent Growth (LOX IMVI [8]; [11]): 4% | Percent Growth (LOX IMVI [8]; [12]): 35% | Percent Growth (LOX IMVI [8]; [13]): 93% | Percent Growth (LOX IMVI [8]; [14]): 97% | Percent Growth (LOX IMVI [8]; [15]): 97% | GI50 (SF-539): 5.19 µM | CC50 (SF-539; read-out: LC50): > 100 µM | TGI (CAKI-1; 48 h): >1.00E−4 Molar | Percent Growth (CAKI-1; [11]): 7% | Percent Growth (CAKI-1; [12]): 88% | Percent Growth (CAKI-1; [13]): 99% | Percent Growth (CAKI-1; [14]): 95% | Percent Growth (CAKI-1; [15]): 88% | GI50 (UO-31): 12.1 µM | CC50 (UO-31; read-out: LC50): 71.7 µM | TGI (HCC-2998; 48 h): >1.00E−4 Molar | Percent Growth (HCC-2998; [11]): 62% | Percent Growth (HCC-2998; [12]): 69% | Percent Growth (HCC-2998; [13]): 93% | Percent Growth (HCC-2998; [14]): 96% | Percent Growth (HCC-2998; [15]): 101% | GI50 (MCF7): 3.42 µM | CC50 (MCF7; read-out: LC50): > 100 µM | TGI (CCRF-CEM [9]; 48 h): 8.86E−5 Molar | Percent Growth (CCRF-CEM [9]; [11]): −2% | Percent Growth (CCRF-CEM [9]; [12]): 41% | Percent Growth (CCRF-CEM [9]; [13]): 92% | Percent Growth (CCRF-CEM [9]; [14]): 100% | Percent Growth (CCRF-CEM [9]; [15]): 96% | TGI (HOP-62; 48 h): 2.64E−5 Molar | Percent Growth (HOP-62; [11]): −65% | Percent Growth (HOP-62; [12]): 48% | Percent Growth (HOP-62; [13]): 97% | Percent Growth (HOP-62; [14]): 92% | Percent Growth (HOP-62; [15]): 99% | GI50 (EKVX [10]): 17.7 µM | CC50 (EKVX [10]; read-out: LC50): > 100 µM | GI50 (SN12C): 9.1 µM | CC50 (SN12C; read-out: LC50): > 100 µM | GI50 (OVCAR-8): 4.92 µM | CC50 (OVCAR-8; read-out: LC50): > 100 µM | TGI (SK-MEL-2; 48 h): 3.31E−5 Molar | Percent Growth (SK-MEL-2; [11]): −30% | Percent Growth (SK-MEL-2; [12]): 32% | Percent Growth (SK-MEL-2; [13]): 99% | Percent Growth (SK-MEL-2; [14]): 94% | Percent Growth (SK-MEL-2; [15]): 102%
